Patent US20230044787A1, “TRICYCLE DIHYDROIMIDAZOPYRIMIDONE DERIVATIVE, PREPARATION METHOD THEREOF, PHARMACEUTICAL COMPOSITION AND USE THEREOF” (priority 2019, published 2023)

These compounds were tested against T1, Lp-PLA2 (Homo sapiens, UniProt Q13093) (assay: Lipoprotein-associated phospholipase A2 (Lp-PLA2) human plasma assay (Thio-PAF assay)). Details: Lp-PLA2 human plasma assay (Thio-PAF), pooled human plasma, 30-min pre-incubation at room temperature.
T1 construct: aliquoted and thawed 40 μL of pooled human plasma was previously added; from tissue; host or cells: pooled human plasma
T1 sequence (Q13093 22-441): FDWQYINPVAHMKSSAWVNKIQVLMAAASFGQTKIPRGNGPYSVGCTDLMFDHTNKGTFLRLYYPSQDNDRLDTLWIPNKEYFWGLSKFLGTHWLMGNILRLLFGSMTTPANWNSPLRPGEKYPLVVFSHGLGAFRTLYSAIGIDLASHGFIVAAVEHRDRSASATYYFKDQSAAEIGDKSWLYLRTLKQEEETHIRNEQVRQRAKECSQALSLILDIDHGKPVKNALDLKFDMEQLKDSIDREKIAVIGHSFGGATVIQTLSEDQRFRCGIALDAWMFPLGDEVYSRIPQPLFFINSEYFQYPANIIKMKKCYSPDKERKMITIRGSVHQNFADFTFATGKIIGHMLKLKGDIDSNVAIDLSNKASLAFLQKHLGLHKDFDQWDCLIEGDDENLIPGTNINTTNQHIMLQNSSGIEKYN
Type: biochemical

Structure (SMILES)	IC50 [nM]
O=c1nc(OCc2ccc(Oc3ccnc(C(F)(F)F)c3)c(F)c2)cc2n1CC13CC(C(F)F)(CN21)C3 [Example 139, 7-(difluoromethyl)-3-((3-fluoro-4-((2-(trifluoromethyl)pyridin-4-yl)oxy)benzyl)oxy)-7,8-dihydro-1H,6H,9H-7,8a-methanopyrrolo[1′,2′:3,4] imidazo[1,2-c]pyrimidin-1-one]	2.6
COc1c(OCc2ccc(Oc3ccnc(C(F)F)c3)c(F)c2)nc(=O)n2c1N1CC3CC1(C3)C2 [Example 140, 3-((4-((2-(difluoromethyl)pyridin-4-yl)oxy)-3-fluorobenzyl)oxy)-4-methoxy-7,8-dihydro-1H,6H,9H-7,8a-methanopyrrolo[1′,2′:3,4] imidazo[1,2-c]pyrimidin-1-one]	3.9
N#Cc1cc(F)cc(COc2cc3n(c(=O)n2)C[C@]24CO[C@H](CN32)C4)c1 [Example 141, 3-fluoro-5-((((3S,11aR)-9-oxo-3,4-dihydro-1H,9H,11H-3,11a-methanopyrimido[6′,1′:2,3]imidazo[5,1-c][1,4]oxazin-7-yl)oxy)methyl)benzonitrile]	6.1
COc1c(OCc2ccc(F)c(C#N)c2)nc(=O)n2c1N1C[C@@H]3C[C@]1(CO3)C2 [Example 142]	3.6
O=c1nc(OCc2cc(F)c(Oc3ccc(Cl)c(F)c3)c(F)c2)cc2n1C[C@]13CO[C@H](CN21)C3 [Example 143]	2.5
O=c1nc(OCc2cc(F)c(Oc3ccc(C(F)(F)F)cc3)c(F)c2)cc2n1C[C@]13CO[C@H](CN21)C3 [Example 144, (3S,11aR)-7-((3,5-difluoro-4-(4-(trifluoromethyl)phenoxy)benzyl)oxy)-3,4-dihydro-1H,9H,11H-3,11a-methanopyrimido[6′1′:2,3] imidazo[5,1-c][1,4]oxazin-9-one]	2.4
O=c1nc(OCc2cc(F)c(Oc3cccc(OC(F)(F)F)c3)c(F)c2)cc2n1C[C@]13CO[C@H](CN21)C3 [Example 145, (3S,11aR)-7-((3,5-difluoro-4-(3-(trifluoromethoxy)phenoxy)benzyl)oxy)-3,4-dihydro-1H,9H,11H-3,11a-methanopyrimido[6′,1′:2,3] imidazo[5,1-c][1,4]oxazin-9-one]	4.3
O=c1nc(OCc2ccc(Oc3ccc(F)c(F)c3)c(F)c2)cc2n1C[C@]13CO[C@H](CN21)C3 [Example 146, (3S,11aR)-7-((4-(3,4-difluorophenoxy)-3-fluorobenzyl)oxy)-3,4-dihydro-1H,9H,11H-3,11a-methanopyrimido[6′,1′:2,3] imidazo[5,1-c][1,4]oxazin-9-one]	2.7
O=c1nc(OCc2cc(F)c(Oc3ccc(F)cc3)c(F)c2)cc2n1C[C@]13CO[C@H](CN21)C3 [Example 147]	6.5
O=c1nc(OCc2ccc(Oc3cncc(C(F)(F)F)c3)c(F)c2)cc2n1CC13CC(CN21)C3 [Example 148, 3-((3-fluoro-4-((5-(trifluoromethyl)pyridin-3-yl)oxy)benzyl)oxy)-7,8-dihydro-1H,6H,9H-7,8a-methanopyrrolo[1′,2′:3,4] imidazo[1,2-c]pyrimidin-1-one]	4.3
O=c1nc(OCc2ccc(Oc3ccnc(C(F)(F)F)c3)c(F)c2)cc2n1CC13CCC(CC1)N23 [Example 149, 3-((3-fluoro-4-((2-(trifluoromethyl)pyridin-4-yl)oxy)benzyl)oxy)-7,8-dihydro-1H,6H,9H-6,8a-ethanopyrrolo[1′,2′:3,4] imidazo[1,2-c]pyrimidin-1-one]	4.1
COc1c(OCc2ccc(F)c(F)c2)nc(=O)n2c1N1CC3CC1(C3)C2 [Example 150, 3-((3,4-difluorobenzyl)oxy)-4-methoxy-7,8-dihydro-1H,6H,9H-7,8a-methanopyrrolo[1′,2′:3,4] imidazo[1,2-c]pyrimidin-1-one]	4.8
COc1c(OCc2cc(F)c(F)c(F)c2)nc(=O)n2c1N1CC3CC1(C3)C2 [Example 151]	5.7
O=c1nc(OCc2ccc(Oc3ccnc(C(F)(F)F)c3)c(F)c2)cc2n1CC13CCC(COC1)N23 (stereo not drawn) [Example 152, 7-((3-fluoro-4-((2-(trifluoromethyl)pyridin-4-yl)oxy)benzyl)oxy)-3,4-dihydro-1H,9H,11H-4,11a-ethanopyrimido[6′,1′:2,3] imidazo[5,1-c][1,4]oxazin-9-one]	3.9
O=c1nc(OCc2ccc(Oc3ccnc(OC(F)(F)F)c3)c(F)c2)cc2n1CC13CC(CN21)C3 [Example 153]	4.1
O=c1nc(OCc2ccc(Oc3ccnc(OC(F)(F)F)c3)c(F)c2)cc2n1CC13CCC(CC1)N23 [Example 154, 3-((3-fluoro-4-((2-(trifluoromethoxy)pyridin-4-yl)oxy)benzyl)oxy)-7,8-dihydro-1H,6H,9H-6,8a-ethanopyrrolo[1′,2′:3,4] imidazo[1,2-c]pyrimidin-1-one]	3.6
O=c1nc(OCc2ccc(Oc3ccnc(Cl)c3)c(F)c2)cc2n1CC13CC(CN21)C3 [Example 155]	3.7

Structure (SMILES)	IC50 [nM]
O=c1nc(OCCc2ccc(Oc3ccnc(C(F)(F)F)c3)c(F)c2)cc2n1C[C@]13CO[C@H](CN21)C3 [Example 156]	5.7
O=c1nc(OCc2ccc(Oc3ccnc(C(F)(F)F)c3)c(F)c2)cc2n1CC13CC(F)(CN21)C3 [Example 157, 7-fluoro-3-((3-fluoro-4-((2-(trifluoromethyl)pyridin-4-yl)oxy)benzyl)oxy)-7,8-dihydro-1H,6H,9H-7,8a-methanopyrrolo[1′,2′:3,4] imidazo[1,2-c]pyrimidin-1-one]	3.9
O=c1nc(OCc2cc(F)c(Oc3ccnc(C(F)(F)F)c3)c(F)c2)cc2n1CC13CC(F)(CN21)C3 [Example 158, 3-((3,5-difluoro-4-((2-(trifluoromethyl)pyridin-4-yl)oxy)benzyl)oxy)-7-fluoro-7,8-dihydro-1H,6H,9H-7,8a-methanopyrrolo[1′,2′:3,4] imidazo[1,2-c]pyrimidine-1-one]	2.1
N#Cc1cc(F)cc(COc2cc3n(c(=O)n2)CC24CC(F)(CN32)C4)c1 [Example 159]	128
N#Cc1cc(COc2cc3n(c(=O)n2)CC24CC(F)(CN32)C4)ccc1F [Example 160]	3.8
O=c1nc(OCc2ccc(Oc3ccnc(C(F)F)c3)cc2)cc2n1CC13CC(CN21)C3 [Example 161]	18.1
O=c1nc(OCc2ccc(Oc3ccnc(C(F)F)c3)c(F)c2)cc2n1CC13CC(CN21)C3 [Example 162]	6.5
N#Cc1cc(COc2cc3n(c(=O)n2)CC24CCC(CC2)N34)ccc1F [Example 163, 2-fluoro-5-(((1-oxo-7,8-dihydro-1H,6H,9H-6,8a-ethanopyrrolo[1′,2′:3,4]imidazo[1,2-c]pyrimidin-3-yl)oxy)methyl)benzonitrile]	2.4
O=c1nc(OCc2ccc(Oc3ccnc(C(F)(F)F)c3)c(F)c2)c(C(F)(F)F)c2n1C[C@]13CO[C@H](CN21)C3 [Example 164, (3S,11aR)-7-((3-fluoro-4-((2-(trifluoromethyl)pyridin-4-yl)oxy)benzyl)oxy)-6-(trifluoromethyl)-3,4-dihydro-1H,9H,11H-3,11a-methanopyrimido[6′,1′:2,3] imidazo[5,1-c][1,4]oxazin-9-one]	1.5
O=c1nc(OCc2ccc(Oc3ccnc(C(F)(F)F)c3)c(F)c2)cc2n1CC13CC(CCN21)C3 [Example 165, 3-((3-fluoro-4-((2-(trifluoromethyl)pyridin-4-yl)oxy)benzyl)oxy)-6,7,8,9-tetrahydro-1H,10H-8,9a-methano-pyrido[1′,2′:3,4] imidazo[1,2-c]pyrimidin-1-one]	3.1
O=c1nc(OCc2ccc(Oc3ccnc(C(F)(F)F)c3)c(F)c2)cc2n1CC13CC(CN4CCOCC4)(CN21)C3 [Example 166, 3-((3-fluoro-4-((2-(trifluoromethyl)pyridin-4-yl)oxy)benzyl)oxy)-7-(morpholinomethyl)-7,8-dihydro-1H,6H,9H-7,8a-methanopyrrolo[1′,2′:3,4] imidazo[1,2-c]pyrimidin-1-one]	5.8
CN1C(=O)[C@]23C[C@H]1CN2c1cc(OCc2cc(F)c(Oc4cnn(C)c4)c(F)c2)nc(=O)n1C3 [Example 167, (3S,11aR)-7-((3,5-difluoro-4-((1-methyl-1H-pyrazol-4-yl)oxy)benzyl)oxy)-2-methyl-3,4-dihydro-9H,11H-3,11a-methanopyrazino[1′,2′:3,4] imidazo[1,2-c]pyrimidine-1,9(2H)-dione]	19.4
CN1C(=O)[C@]23C[C@H]1CN2c1cc(OCc2ccc(Oc4ccc(Cl)c(C(F)(F)F)c4)c(C#N)c2)nc(=O)n1C3 [Example 168]	3.6
O=c1nc(OCCc2cc(F)c(Oc3ccnc(C(F)(F)F)c3)c(F)c2)cc2n1CC13CC(CN21)C3 [Example 169, 3-(3,5-Difluoro-4-((2-(trifluoromethyl)pyridin-4-yl)oxy)phenethoxy)-7,8-dihydro-1H1,6H1,9H-7,8a-methanopyrrolo[1′, 2′:3, 4]imidazo[1,2-c]pyrimidin-1-one]	4.9
COc1c(CCc2ccc(Oc3ccnc(C(F)(F)F)c3)cc2)nc(=O)n2c1N1C[C@@H]3C[C@]1(CO3)C2 [Example 170, (3S,11aR)-6-Methoxy-7-(4-((2-(trifluoromethyl)pyridin-4-yl)oxy)phenethyl)-3,4-dihydro-1H,9H,11H-3,11a-methanopyrimido[6′,1′:2,3]imidazo[5,1-c] [1,4]oxazin-9-one]	178
CN1C[C@]23C[C@H]1CN2c1cc(OCc2ccc(Oc4ccnc(C(F)(F)F)c4)c(F)c2)nc(=O)n1C3 [Example 171, (3S,11aS)-7-((3-Fluoro-4-((2-(trifluoromethyl)pyridin-4-yl)oxy)benzyl)oxy)-2-methyl-1,2,3,4-tetrahydro-9H,11H-3,11a-methanopyrazino[1′, 2′:3, 4]imidazo[1,2-c]pyrimidin-9-one]	2.1
